4 compounds from ChEMBL document CHEMBL1156198 (J Med Chem, 2010) can be followed below.

Data set [1] in a line: Oral bioavailability in CD1 mouse at 10 mg/kg. It counts as ADME, organism-based. As to conditions: in vivo.
The nature of data set [2]: Half life in iv dosed CD1 mouse. As to conditions: in vivo. It counts as ADME, organism-based.
Data set [3] in a line: AUC in CD1 mouse at 10 mg/kg, po. Details: dose 10 mg/kg, route oral. As to conditions: plasma. It counts as ADME, organism-based.
Data set [4] in a line: Cmax in CD1 mouse at 10 mg/kg, po. Details: dose 10 mg/kg, route oral. Particulars: in vivo. It is filed as ADME, organism-based.
Data set [5] is described as follows: Terminal phase volume of distribution in CD1 mouse. Particulars: in vivo, read-out: Vbeta. It counts as ADME, organism-based.
Data set [6] can be described thus: Clearance in CD1 mouse. It counts as ADME, organism-based. As to conditions: in vivo.
Data set [7] is described as follows: AUC in CD1 mouse plasma at 30 mg/kg, po. It counts as ADME, organism-based. Further details: dose 30 mg/kg, route oral.
The nature of data set [8]: AUC in CD1 mouse brain at 30 mg/kg, po. It counts as ADME, organism-based. Further details: dose 30 mg/kg, route oral.
Data set [9] can be described thus: Oral bioavailability in Sprague-Dawley rat at 5 mg/kg. It is filed as ADME, organism-based. Particulars: in vivo.
Data set [10] in a line: Half life in iv dosed Sprague-Dawley rat. As to conditions: in vivo. It counts as ADME, organism-based.
A short description of data set [11]: AUC in Sprague-Dawley rat at 5 mg/kg, po. It is filed as ADME, organism-based. Further details: dose 5 mg/kg, route oral. Particulars: plasma.
The nature of data set [12]: Cmax in Sprague-Dawley rat at 5 mg/kg, po. It is filed as ADME, organism-based. Further details: dose 5 mg/kg, route oral. As to conditions: in vivo.
The nature of data set [13]: Terminal phase volume of distribution in Sprague-Dawley rat. Particulars: in vivo, read-out: Vbeta. It is filed as ADME, organism-based.
Data set [14] can be described thus: Clearance in Sprague-Dawley rat. As to conditions: in vivo. It counts as ADME, organism-based.
The nature of data set [15]: Oral bioavailability in Beagle dog at […]. It is filed as ADME, organism-based, Canis lupus familiaris. Particulars: in vivo.
A short description of data set [16]: Half life in iv dosed Beagle dog. It counts as ADME, organism-based, Canis lupus familiaris. Particulars: in vivo.
Data set [17] can be described thus: AUC in Beagle dog at […], po. It counts as ADME, organism-based, Canis lupus familiaris. Further details: dose 2.5 mg/kg, route oral. As to conditions: plasma.
Data set [18] is described as follows: Cmax in Beagle dog at […], po. It is filed as ADME, organism-based, Canis lupus familiaris. Details: dose 2.5 mg/kg, route oral. As to conditions: in vivo.
The nature of data set [19]: Terminal phase volume of distribution in Beagle dog. It counts as ADME, organism-based, Canis lupus familiaris. Particulars: in vivo, read-out: Vbeta.
The nature of data set [20]: Clearance in Beagle dog. It is filed as ADME, organism-based, Canis lupus familiaris. Particulars: in vivo.
Data set [21] in a line: Oral bioavailability in cynomolgus monkey at […]. It is filed as ADME, organism-based, Macaca fascicularis. Particulars: in vivo.
Data set [22] can be described thus: Half life in iv dosed cynomolgus monkey. Particulars: in vivo. It counts as ADME, organism-based, Macaca fascicularis.
Data set [23] in a line: AUC in cynomolgus monkey at […], po. As to conditions: plasma. It counts as ADME, organism-based, Macaca fascicularis. Further details: dose 2.5 mg/kg, route oral.
A short description of data set [24]: Cmax in cynomolgus monkey at […], po. It counts as ADME, organism-based, Macaca fascicularis. Further details: dose 2.5 mg/kg, route oral. As to conditions: in vivo.
The nature of data set [25]: Terminal phase volume of distribution in cynomolgus monkey. As to conditions: in vivo, read-out: Vbeta. It is filed as ADME, organism-based, Macaca fascicularis.
Data set [26] can be described thus: Clearance in cynomolgus monkey. It is filed as ADME, organism-based, Macaca fascicularis. Particulars: in vivo.
A short description of data set [27]: Ratio of drug level in plasma to brain of CD1 mouse.
A short description of data set [28]: Drug level in mouse B16F10 transplanted C57BL/6 mouse plasma at 25 mg/kg/day, po administered from day 6 to 10 post transplantation measured after 6 hrs of final dose. It counts as ADME, organism-based, C57BL6. Details: route oral.
Data set [29] is described as follows: Drug level in mouse B16F10 cells transplanted in C57BL/6 mouse at 25 mg/kg/day, po administered from day 6 to 10 post transplantation measured after 6 hrs of final dose. It is filed as ADME, organism-based, C57BL6, B16-F10. Further details: route oral. Particulars: B16F10 tumour (neoplasm).
Data set [30] in a line: Drug level in mouse B16F10 transplanted TMZ-treated C57BL/6 mouse plasma […] at 25 mg/kg/day, po administered from day 6 to 10 post transplantation measured after 6 hrs of final dose in presence of TMZ. It counts as ADME, organism-based, C57BL6. Details: route oral.

Molecules are shown by their SMILES.

Consider `NC(=O)c1cccc2[nH]c(-c3ccc([C@H]4CCCCN4)cc3F)nc12`, for which, in data set [1], the bioavailability is 100%. Besides, the half-life in data set [2] is 1.4 h. The area under the curve (AUC) turned out to be 1600 ng·h/mL in data set [3], 5800 ng·h/mL in [7] and 6300 ng·h/mL in data set [8]. In [4], this compound returned a Cmax of 300 ng/mL. Also, the Vd in data set [5] was determined as 15 L/kg. The compound further had a clearance in data set [6] of 122 mL/min/kg.

As for `NC(=O)c1cccc2[nH]c(-c3ccc([C@@H]4CCCCN4)cc3F)nc12`, the bioavailability in data set [1] is 63%; in data set [9], 80%; in [15] it was 39%; in data set [21], 61%. The half-life in [2] was 1.3 h; in [10], 4.5 h; in data set [16], 2 h; in data set [22], 5 h. Besides, the exposure (AUC) in data set [3] came out at 1700 ng·h/mL; in data set [11] it was 1800 ng·h/mL; in [17] it was 300 ng·h/mL; in [23] it was 750 ng·h/mL; in data set [7], 9900 ng·h/mL; in data set [8] it was 9100 ng·h/mL. In addition, the Cmax in [4] is 500 ng/mL; in data set [12], 200 ng/mL; in data set [18] it was 100 ng/mL; in data set [24], 100 ng/mL. In addition, the Vd was found to be 6.6 L/kg in data set [5], 14 L/kg in data set [13], 9.3 L/kg in [19] and 15 L/kg in [25]. Besides, the clearance is 60 mL/min/kg in data set [6], 38.3 mL/min/kg in data set [14], 56.7 mL/min/kg in [20] and 36.7 mL/min/kg in data set [26].

`NC(=O)c1cccc2[nH]c(-c3ccc([C@H]4CCCN4)cc3F)nc12`: in data set [1], the bioavailability worked out at 36%. In data set [2], this compound showed a half-life of 0.9 h. The AUC in [3] amounted to 1000 ng·h/mL; in [7], 4200 ng·h/mL; in data set [8], 1800 ng·h/mL. Also, in data set [4], the Cmax was determined as 500 ng/mL. In addition, the Vd in data set [5] was determined as 4.6 L/kg. For the same compound, in [6], the clearance is 60 mL/min/kg. The Kp in data set [27] turned out to be 2.

As for `NC(=O)c1cccc2[nH]c(-c3ccc([C@@H]4CCCN4)cc3F)nc12`, the bioavailability in data set [1] was 36%; in [9], 55%; in [15], 72%; in data set [21], 34%. In addition, the half-life in [2] is 0.8 h; in data set [10], 1.9 h; in [16], 1.7 h; in [22], 1.8 h. Moreover, the AUC in [3] was 1200 ng·h/mL; in [11] it was 1700 ng·h/mL; in data set [17], 1100 ng·h/mL; in data set [23] it was 200 ng·h/mL; in [7], 9800 ng·h/mL; in data set [8], 4200 ng·h/mL. Further, the Cmax turned out to be 600 ng/mL in data set [4], 300 ng/mL in [12], 500 ng/mL in data set [18] and 30 ng/mL in data set [24]. For the same compound, the Vd was 3.3 L/kg in [5], 4.1 L/kg in data set [13], 3.6 L/kg in data set [19] and 9.2 L/kg in [25]. The clearance in [6] is 48.3 mL/min/kg; in [14] it was 28.3 mL/min/kg; in data set [20], 28.3 mL/min/kg; in data set [26], 68.3 mL/min/kg. Moreover, the figures for the concentration at 6 h in data set [28], in [29] and in data set [30] were 220 ng/mL, 17200 ng/mL and 380 ng/mL, respectively. Moreover, the concentration ratio (Kp) in [27] amounted to 2.
